From patent US20190365645A1, “DRUG DELIVERY ARTICLES FOR GRAM-LEVEL DOSING” (Massachusetts Institute of Technology, priority 2018, published 2019)

What was measured:
[1] = In vitro drug release from drug-vinylpolysiloxane pills/articles (simulated gastric fluid or water); type: physicochemical; details: for in vitro release from drug-VPS pills: SGF (isoniazid and rifampicin in water)
Experimental: Articles with a series of 30 pills were made so that there was 1 gram of doxycycline hyclate in 2 grams of vinylpolysiloxane. Pills were coated with either cellulose acetate butyrate (CAB) or with Eudragit RS PO. A control with no coatings was also made. The articles were immersed in simulated gastric fluid, and the cumulative release of doxycycline hyclate was measured for more than 26 days.
Thickness of coatings was tuned by increasing the spray volume.
Individual pills made of drug-VPS for doxycycline hyclate, isoniazid, ethambutol, pyrazinamide, moxifloxacin were used to evaluate long-term release kinetics in SGF. Pill formulations were incubated in a New Brunswick Innova 44 shaking incubator (Eppendorf) at 37° C. and 200 rpm in 50 mL of SGF for up to 28 days, with solution exchanges at specified time intervals. Drug concentrations were then analyzed using a High-Performance Liquid Chromatography (HPLC). Because of the lack of a validated HPLC method for evaluating isoniazid in SGF, water was used to study differences between isoniazid formulations. Three intact rifampicin devices were fabricated by loading 2 grams of drug into VPS pills. The devices were incubated in 500 mL of nanopure water for up to 26 days in a shaking incubator at 37° C. and 200 rpm, with media exchange at specified time intervals. […] The drug concentrations samples were then measured on an Infinite M200Pro (Tecan) reader (absorbance, 475 nm).
An Agilent 1260 Infinity II HPLC system (Agilent Technologies, Inc.) equipped with a Model 1260 quaternary pump, Model 1260 High Performance autosampler, Model 1260 thermostat, Model 1260 Infinity Thermostatted Column Compartment control module, and Model 1260 diode array detector was utilized. Data processing and analysis was performed using OpenLab CDS ChemStation (Agilent Technologies, Inc.). All solvents used were purchased from Sigma-Aldrich Corporation. For doxycycline hyclate, chromatographic isocratic separation was carried out on an Agilent 4.6×50 mm AdvanceBio RP-mAb SB-C8 analytical column with 3.5 μm particles, maintained at 55° C. The optimized mobile phase consisted of 20 mM dipotassium phosphate buffer and acetonitrile (pH 6 adjusted with triethylamine) [60:40 (v/v)] at a flow rate of 0.85 mL/min over a 4 min run time. The injection volume was 5 μl, and the selected ultraviolet (UV) detection wavelength was 293 nm.

[2] = pig, in vivo
[3] = reason water was used as release medium; cited from earlier work

doxycycline hyclate
duration of drug release (cumulative release) ([1]; articles of 30 pills, 1 gram drug in 2 grams vinylpolysiloxane, simulated gastric fluid): more than 26 days | release kinetic profile ([1]; formulations coated with Eudragit RS 100, SGF): linear kinetic profile with limited burst release | duration drug detectable in serum [2]: at least 28 days | duration of sustained drug release, non-zero concentrations in the blood [2]: at least 7 days | time after which no drug was detectable in serum [2]: 3 ays | time to detectable serum concentrations [2]: ≤ 15 min

NC(=O)c1cnccn1 [pyrazinamide]
in vitro release from drug-VPS pills [1]: able to release

CC[C@@H](CO)NCCN[C@@H](CC)CO [ethambutol]
in vitro release from drug-VPS pills [1]: able to release

CO[C@H]1/C=C/O[C@@]2(C)Oc3c(C)c(O)c4c(O)c(c(/C=N/N5CCN(C)CC5)c(O)c4c3C2=O)NC(=O)/C(C)=C\C=C\[C@H](C)[C@H](O)[C@@H](C)[C@@H](O)[C@@H](C)[C@H](OC(C)=O)[C@@H]1C [rifampicin]
duration of detectable serum concentrations [2]: for a week | stability in acid [3]: rapidly degrades in acid

NNC(=O)c1ccncc1 [isoniazid]
in vitro release from drug-VPS pills [1]: able to release
